Measurements published in ChEMBL document CHEMBL1938368, “Structure-activity relationship of naphthaldehydethiosemicarbazones in melanogenesis inhibition” (Bioorg Med Chem Lett, 2012).
pIC50: −log10 of the molar value.

Assays:
B16 [1] = test: Antimelanogenic activity at alpha-MSH-stimulated mouse melanoma B16 cells at 10 uM after 3 days by spectrophotometry; format: functional; settings: B16, 72 h
B16 [2] = test: Antimelanogenic activity at alpha-MSH-stimulated mouse melanoma B16 cells after 3 days by spectrophotometry; format: functional, cell-based; settings: B16, 72 h

| Compound | pIC50 (B16 [2]) | inhibition at 10 µM (B16 [1]) [%] |
| --- | --- | --- |
| S=C(N/N=C/c1cccc2ccccc12)Nc1ccccc1 | 6.30 | > 100 |
| Cc1ccc(NC(=S)N/N=C/c2cccc3ccccc23)cc1 | 6.24 | > 100 |
| S=C(N/N=C/c1cccc2ccccc12)Nc1ccc(Cl)cc1 | 5.72 | > 100 |
| COc1ccc(NC(=S)N/N=C/c2cccc3ccccc23)cc1 | 6.07 | > 100 |
| Cc1cccc(NC(=S)N/N=C/c2cccc3ccccc23)c1 | 6.35 | > 100 |
| COc1cccc(NC(=S)N/N=C/c2cccc3ccccc23)c1 | 6.08 | > 100 |
| COc1ccccc1NC(=S)N/N=C/c1cccc2ccccc12 | 6.04 | > 100 |
| S=C(N/N=C/c1cccc2ccccc12)NC1CCCCC1 | 6.54 | > 100 |
| CN(/N=C/c1cccc2ccccc12)C(N)=S | 5.80 | > 100 |
| CN(C)C(=S)N(C)/N=C/c1cccc2ccccc12 | 5.07 | 76 |

Now from value to molecule, other results behind:

| pIC50 (B16 [2]) | Compound | inhibition at 10 µM (B16 [1]) [%] |
| --- | --- | --- |
| 5.70 | CNC(=S)N/N=C/c1cccc2ccccc12 | > 100 |
| 5.96 | CCNC(=S)N/N=C/c1cccc2ccccc12 | > 100 |
| 6.31 | Cc1ccccc1NC(=S)N/N=C/c1cccc2ccccc12 | > 100 |
| 6.57 | S=C(NCc1ccccc1)N/N=C/c1cccc2ccccc12 | > 100 |
| 6.55 | CN(C)C(=S)N/N=C/c1cccc2ccccc12 | > 100 |
| < 4.00 | NC(=O)N/N=C/c1cccc2ccccc12 | < 10 |
